From ChEMBL document CHEMBL1136944, “Serratezomines D and E, new Lycopodium alkaloids from Lycopodium serratum var. serratum” (Bioorg Med Chem Lett, 2009) come the findings set out here.

In assay [1] the target is Acetylcholinesterase (Electrophorus electricus) (UniProt O42275). Briefly: (§1) Inhibition of Electrophorus electricus acetylcholinesterase by rapid colorimetric determination.
The target in assay [2] is Acetylcholinesterase (Electrophorus electricus, UniProt O42275). The assay is described as §1.
Acetylcholinesterase, sequence (O42275 whole entry): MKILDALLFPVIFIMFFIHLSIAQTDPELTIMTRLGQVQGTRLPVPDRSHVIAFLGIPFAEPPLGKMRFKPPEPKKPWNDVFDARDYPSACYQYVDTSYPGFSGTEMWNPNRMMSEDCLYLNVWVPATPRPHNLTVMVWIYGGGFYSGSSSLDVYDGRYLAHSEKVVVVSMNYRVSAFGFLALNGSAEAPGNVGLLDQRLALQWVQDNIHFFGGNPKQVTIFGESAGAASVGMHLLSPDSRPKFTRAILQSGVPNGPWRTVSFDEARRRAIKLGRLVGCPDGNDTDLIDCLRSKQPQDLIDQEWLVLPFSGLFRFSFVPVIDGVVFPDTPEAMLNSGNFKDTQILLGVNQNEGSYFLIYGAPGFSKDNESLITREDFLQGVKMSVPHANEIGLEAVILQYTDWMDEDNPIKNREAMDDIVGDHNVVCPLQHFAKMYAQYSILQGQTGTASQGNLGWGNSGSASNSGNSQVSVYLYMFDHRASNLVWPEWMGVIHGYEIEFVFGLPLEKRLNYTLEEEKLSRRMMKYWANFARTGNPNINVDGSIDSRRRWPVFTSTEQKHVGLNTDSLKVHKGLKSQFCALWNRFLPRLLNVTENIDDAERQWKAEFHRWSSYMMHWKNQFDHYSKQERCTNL

Active and inactive are the calls of the source. No cut-off for these calls is given here.

Acetylcholinesterase (Electrophorus electricus), sequence (O42275 24-633 limits assumed): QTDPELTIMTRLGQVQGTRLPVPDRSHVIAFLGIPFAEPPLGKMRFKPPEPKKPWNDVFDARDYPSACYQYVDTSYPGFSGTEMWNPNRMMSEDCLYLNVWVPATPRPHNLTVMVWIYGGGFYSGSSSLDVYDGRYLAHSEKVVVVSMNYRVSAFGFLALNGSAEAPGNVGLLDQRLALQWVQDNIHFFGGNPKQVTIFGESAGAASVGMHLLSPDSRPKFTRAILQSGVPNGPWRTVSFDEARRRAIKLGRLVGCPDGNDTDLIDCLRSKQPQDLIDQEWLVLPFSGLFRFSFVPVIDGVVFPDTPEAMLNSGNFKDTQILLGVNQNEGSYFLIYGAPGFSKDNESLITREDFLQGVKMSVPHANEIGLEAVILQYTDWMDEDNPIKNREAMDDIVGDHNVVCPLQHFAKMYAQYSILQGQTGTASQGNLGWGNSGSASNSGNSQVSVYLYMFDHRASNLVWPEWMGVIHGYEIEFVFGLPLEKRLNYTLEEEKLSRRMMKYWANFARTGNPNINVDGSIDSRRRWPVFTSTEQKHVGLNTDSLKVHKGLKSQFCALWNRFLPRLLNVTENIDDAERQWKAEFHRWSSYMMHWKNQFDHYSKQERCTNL

As to `CC(=O)N1CCC[C@H]2[C@@H](C[C@H]3CC[C@]4(O)[C@@H]5C[C@@H]6[C@@H](C[C@@H](C)C[C@@H]6N(C)C5)C[C@H]4N3)C[C@H](C)C[C@H]21`, the outcome in assay [1] was inactive. On to `CC(=O)N1CCC[C@H]2[C@@H](C[C@@H]3CC[C@@H]4[C@@H]5C[C@@H]6[C@@H](C[C@@H](C)C[C@@H]6N(C)C5)C[C@H]4N3)C[C@H](C)C[C@H]21`, for which the result in assay [1] was inactive.

With `CC(=O)N1CCC[C@@H]2[C@@H](C[C@H]3CC[C@@H]4[C@H]5C[C@@H]6[C@@H](C[C@@H](C)C[C@@H]6N(C)C5)C[C@H]4N3)C[C@H](C)C[C@@H]21`, the outcome in assay [1] was inactive.

In the case of `C[C@@H]1C[C@@H]2C[C@H]3N[C@H](C[C@H]4C[C@@H](C)C[C@@H]5[C@@H]4CCCN5C=O)CC[C@@H]3[C@H]3C[C@H]2[C@@H](C1)N(C)C3` [SERRATEZOMINE D], in assay [2], the IC50 stood at 600 µM.

The IC50 is the concentration that gives 50% inhibition.
